Measured values published in patent publication US20100137266A1, “TREATMENT OF INSULIN RESISTANCE AND DISORDERS ASSOCIATED THEREWITH” (UNIVERSITETET I OSLO, priority 2006, published 2010).

Legend:
[1] = tested on: GLUT1, GLUT3, GLUT4; assay: mRNA levels of glucose transporters in myotubes by Real-Time RT-PCR; type: cell-based, human; conditions: for GLUT4 mRNA level, increase: 1 μmol/l T0901317 or 10 μmol/l 22-R-HC for 4 days
From the text: FIG. 7. Glucose transport is increased in human myotubes after chronic 22-S-HC treatment. Human myoblasts were allowed to differentiate for 2 days, and then exposed to 1 μmol/1 T0901317, 10 μmol/[…]) or 1, 2, 5 and 10 μmol/1 22-S-HC(S-HC) for 4 days. […] (A) Present means for glucose uptake±SEM (n=4). Basal level for control are 1.20±0.24 nmol/mg cell protein. (B) A representative dose-response curve for glucose uptake after 1, 2, 5 and 10 μmol/l 22-S-HC treatment (n=3). (C) Total RNA were reversely transcribed and analyzed by Real-Time RT-PCR. Results are normalized to levels of 36B4 and present means±SEM (n=4-6). Relative expressions of GLUT1, GLUT3, GLUT4, and hexokinase (HK)II, ^ap<0.05 vs control, ^dp<0.05 vs T0901317. RNA isolation and analysis of gene expression by RT-PCR. Myotubes were washed, trypsinized and pelleted before total RNA was isolated by RNeasy Mini kit (Qiagen Sciences, Oslo, Norway) or Agilent Total RNA Mini kit (Matrix, Oslo, Norway) according to the suppliers total RNA isolation protocol. RNA samples were incubated with RNase-free DNase (Qiagen Sciences) for minimum 15 min in an additional step during the RNA isolation procedure. Total RNA (1 μg/μl) was reversely transcribed with […] primers using a Perkin-Elmer Thermal Cycler 9600 (25° C. for 10 min, 37° C. for 1 h, 99° C. for 5 min) and a TaqMan reverse-transcription reagents kit (Applied Biosystems). Real time PCR was performed using an ABI PRISM® 7000 Detection System. DNA expression was determined by SYBR® Green (Applied Biosystems), and primers [36B4 (Acc#M17885), ACSL1 (Acc#NM-001995), ABCA1 (Acc#AF165281), CD36 (Acc#L06850), FAS (Acc#U26644), GAPDH (Acc#J104038/M33197, GLUT4 (Acc#M20747), LXRα (Acc#U22662), LXR (Acc#U07132), Myogenin (Acc#X17651), MyoD (Acc#BC064493), PPARα (Acc#L02932), PPARδ (Acc#BC002715), PPARγ (Acc#L40904), SCD-1 (Acc#AB032261), SREBP1c (Acc#U00968)], GLUT1, (Acc#03195), GLUT3 ([…]) were designed using Primer Express® (Applied Biosystems). Each target gene was quantified in triplicates and carried out in a 25 μl reaction volume according to the suppliers protocol. […]

[2] = target: T1, LXRα (Homo sapiens, UniProt Q13133); conditions: Forman et al.; cited from earlier work
T1 construct: host or cells: CV-1 cells (fibroblasts)
T1 sequence (Q13133 1-447): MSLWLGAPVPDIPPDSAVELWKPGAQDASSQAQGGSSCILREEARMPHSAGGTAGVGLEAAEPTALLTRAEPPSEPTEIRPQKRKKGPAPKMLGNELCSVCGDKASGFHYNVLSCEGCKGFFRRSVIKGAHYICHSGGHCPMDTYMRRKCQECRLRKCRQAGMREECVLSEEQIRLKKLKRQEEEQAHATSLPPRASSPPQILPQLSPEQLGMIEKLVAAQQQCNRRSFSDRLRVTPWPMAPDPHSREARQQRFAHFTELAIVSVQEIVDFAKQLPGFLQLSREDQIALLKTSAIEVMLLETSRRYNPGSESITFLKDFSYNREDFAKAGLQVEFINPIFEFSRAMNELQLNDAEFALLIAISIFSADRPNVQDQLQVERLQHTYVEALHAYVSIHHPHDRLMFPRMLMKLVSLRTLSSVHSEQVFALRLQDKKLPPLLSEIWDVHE

[3] = tested on: human myotubes; assay: Palmitate uptake and lipid distribution: TAG synthesis from [1-14C]palmitic acid in myotubes; type: cell-based
Method: FIG. 3. 22-hydroxycholesterols influence TAG synthesis from palmitic acid differently than T0901317. Human myoblasts were allowed to differentiate for 2 days, and then exposed to vehicle (0.1% DMSO), 1 μM T0901317, or 10 μM 22-S-hydroxycholesterol (22-S-HC) for 4 days. Differentiated myotubes were then incubated with [1-^14C]PA (0.5 μCi/ml, 0.1 mM) for 4 h before triacylglycerol (TAG) levels were determined. Results present means±SEM (n=4; independent muscle cell donors). *p<0.05 vs control, **p<0.05 vs all other treatments.
Human skeletal muscle cell cultures. A cell bank of satellite cells was established from muscle biopsy samples of the M. vastus lateralis of 6 healthy volunteers, age 25.7 years (±1.4), with BMI 21.6 (±1.0) and fasting glucose and insulin within normal range. The biopsies were obtained with informed consent and by approval of the National Committee for Research Ethics, Oslo, Norway. Muscle cell cultures free of fibroblasts were established by the method of Henry et al. (Diabetes, 44, 936-946, 1995), with minor modifications. Briefly, muscle tissue was dissected in Ham's F-10 media at 4° C., dissociated by three successive treatments with 0.05% trypsin/EDTA, and satellite cells were re-suspended in SkGM with 2% FCS and no added insulin. The cells were grown on culture wells coated with ECM gel (Apmis, 109, 726-734, 2001). At about 80% confluence, fusion of myoblasts into multinucleated myotubes was achieved by growth in DMEM with 2% FCS. All cells used were at passage 4 to 6. […]
Palmitate uptake and lipid distribution. […] The radioactivity in the cell fraction (20 μl) was quantified by liquid scintillation (Packard Tri-Carb 1900 TR) (Gaster et al, Diabetes, 53, 542-548, 2004). The protein content of each sample was determined (Bradford, Anal. Biochem., 72, 248-254, 1976), and triacylglycerol (TAG) was extracted (Gaster et al, supra). Briefly, the homogenized cell fraction (220 μl) was extracted, lipids separated by thin-layer chromatography and the radioactivity was quantified by liquid scintillation.

CC(C)CC[C@@H](O)[C@@H](C)[C@H]1CC[C@H]2[C@@H]3CC=C4C[C@@H](O)CC[C@]4(C)[C@H]3CC[C@]12C [Example 22-R-HC, 22-R-hydroxycholesterol]
GLUT4 mRNA level, increase [1]: 4 fold
regulation of LXRα in fibroblasts (CV-1 cells) [2]: positively regulates

CC(C)CC[C@H](O)[C@@H](C)[C@H]1CC[C@H]2[C@@H]3CC=C4C[C@@H](O)CC[C@]4(C)[C@H]3CC[C@]12C [Example 22-S-HC, 22-S-hydroxycholesterol]
synthesis of TAG compared to T0901317 treatment ([3]; 10 μM for 4 days vs 1 μM T0901317): significantly reduced
reduction in incorporation of labeled palmitate into TAG ([3]; 10 μM for 4 days, compared to control myotubes): 50%
regulation of LXRα in fibroblasts (CV-1 cells) [2]: inactive

O=S(=O)(c1ccccc1)N(CC(F)(F)F)c1ccc(C(O)(C(F)(F)F)C(F)(F)F)cc1 [Example T0901317]
TAG synthesis from labeled palmitate ([3]; 1 μM T0901317 for 4 days, [1-14C]PA 4 h, vs control): increased
GLUT4 mRNA level, increase [1]: 4 fold
mRNA level of glucose transporter 1 (GLUT1) ([1]; treatment for 4 days): tended to increase
